The test system of experiment [1] is pseudotyped VSVs harboring SARS-CoV S (SARS-Spp). Description: microbe, parasite or virus in culture. The format is cell-based. The following applies: for EC50: Severe acute respiratory syndrome coronavirus.
Experiment [2] concerns pseudotyped VSVs harboring MERS-CoV S (MERS-Spp). The class given is cell-based.

The source of these data is PMC8749431 (mBio, 2022).

A word on the EC50: it is the concentration needed to bring the measured effect to its halfway point.

With `CCN1CCN(C(c2ccc(Cl)cc2)c2ccc(Cl)cc2)CC1` [Dichlorcyclizine, dichlorcyclizine], the 50% effective concentration (EC50) in experiment [1] was found to be 5.76 µM; in experiment [1] (Huh-7) it was 0.87 µM; in experiment [1] (MA104) it was 9.92 µM.
The like results for `CN1CCN([C@@H](c2ccccc2)c2ccc(Cl)cc2)CC1` [(S)-CCZ, (S)-chlorcyclizine] were, in that order, 4.59 µM, 3.21 µM and 6.91 µM.
The matching figures for `Cc1cc(-c2nc(CN3CCC(C(=O)NCCCN4C[C@H](C)C[C@H](C)C4)CC3)co2)ccc1F` [Fluoxazolevir, fluoxazolevir]: 1.46 µM, 1.75 µM and 6.49 µM.
In the case of `CCOC(=O)[C@H]1O[C@@H]1C(=O)N[C@@H](CC(C)C)C(=O)NCCC(C)C` [E-64d], the “inhibition of SARS-Spp entry” value in experiment [1] is on record as “inhibited”. The “inhibition of MERS-Spp entry” value in experiment [2] is “reduced”.
The matching figures for `CCN(CC)CCCC(C)Nc1ccnc2cc(Cl)ccc12` (stereo not shown) [Chloroquine, chloroquine]: “inhibited” and “reduced”.
